{"source": "the NIST ThermoML archive (doi:10.1021/acs.jced.9b00173)", "note": "± gives the expanded uncertainty stated by the source."}
{"assay": "xn = mol fraction of the nth substance listed", "conditions": "303.15 K; 101.3 kPa; Liquid; Concentric cylinders viscometry; x1 = 0.5", "units": {"viscosity": "mPa·s"}}
{"compound": "c1nnn[nH]1", "note": "[1H-tetrazole] + CCCC[P+](CCCC)(CCCC)CCCC.[Cl-]", "viscosity": "40.22 ± 1.5"}
{"compound": "c1nnn[nH]1", "note": "[1H-tetrazole] + CCCC[N+](CCCC)(CCCC)CCCC.[Cl-]", "viscosity": "87.88 ± 2.8"}
{"compound": "c1nc[nH]n1", "note": "[1H-1,2,4-triazole] + CCCC[P+](CCCC)(CCCC)CCCC.[Cl-]", "viscosity": "67.23 ± 2"}
{"compound": "c1nnn[nH]1", "note": "[1H-tetrazole] + CCCC[P+](CCCC)(CCCC)CCCC.[Br-]", "viscosity": "68.26 ± 2.1"}
{"compound": "c1nnn[nH]1", "note": "[1H-tetrazole] + CCCC[N+](CCCC)(CCCC)CCCC.[Br-]", "viscosity": "279.15 ± 15"}
{"assay": "xn = mol fraction of the nth substance listed", "conditions": "303.15 K; 101.3 kPa; Liquid; Concentric cylinders viscometry; x2 = 0.5", "units": {"viscosity": "mPa·s"}}
{"compound": "CCCC[P+](CCCC)(CCCC)CCCC.[Cl-]", "note": "[tetrabutylphosphonium chloride] + c1c[nH]cn1", "viscosity": "52.34 ± 1.6"}
